Some test systems named below: A549; ACHN; DU-145; HL-60; Hs-578T; MCF7; MDA-MB-231; MDA-MB-435; NCI-H460; OVCAR-8; PC-3; RXF 393; SK-MEL-28; SK-MEL-5; SK-OV-3; SW-620; U-251; UO-31; SNB-75; T47D.
What all share (assay): DTP human tumour cell line panel, 48 h

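Method: 48-hour compound exposure of cells in 96-well plates, five concentrations, linear interpolation of endpoints. Here, GI50 denotes the concentration required for 50% inhibition of growth.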 The source made the active and inactive calls. Cut-off read from the data, not from the text of the source: active = GI50 up to about 1.1 µM and inactive = higher. Some results are limits rather than exact numbers.

As to `O=[N+]([O-])/C(C(Cl)=C(Cl)Cl)=C1\NCCS1`, the GI50 was > 100 µM (inactive) in the assay on A549; 61 µM (inactive) in the assay with ACHN; > 100 µM (inactive) with DU-145; 16.9 µM (inactive) in the assay with HL-60; 27.4 µM (inactive) in the assay on Hs-578T; 36 µM (inactive) in the assay on MCF7. Also, the GI50 with MDA-MB-231 was 38.8 µM (inactive); in the assay on MDA-MB-435, 35.8 µM (inactive); with NCI-H460, 83.9 µM (inactive); with OVCAR-8 it was 47.2 µM (inactive); in the assay with PC-3, 35.6 µM (inactive); with RXF 393, 27.9 µM (inactive). For the same molecule, the GI50 in the assay with SK-MEL-28 is 48.2 µM (inactive); in the assay on SK-MEL-5 it was > 100 µM (inactive); in the assay on SK-OV-3, > 100 µM (inactive); in the assay on SW-620, 56 µM (inactive); in the assay with U-251, 45.8 µM (inactive); in the assay on UO-31 it was 41.1 µM (inactive).

Consider `COc1cc2oc(=O)cc(C)c2c(OC)c1O`, for which the GI50 in the assay on A549 was > 100 µM (inactive); in the assay with ACHN, > 100 µM (inactive); with DU-145, > 100 µM (inactive); with Hs-578T, 25.2 µM (inactive); with MCF7 it was > 100 µM (inactive); with MDA-MB-231 it was > 100 µM (inactive). Also, the GI50 in the assay on MDA-MB-435, in the assay with OVCAR-8, in the assay on PC-3, in the assay on SK-MEL-28, in the assay on SK-MEL-5 and in the assay with SK-OV-3 was > 100 µM (inactive) each time. Also, the GI50 with SNB-75, with SW-620, in the assay on U-251 and in the assay with UO-31 was > 100 µM (inactive) throughout.

Regarding `O=c1oc2ccccc2n1CCCn1c(=O)oc2ccccc21`, the GI50 is 92.5 µM (inactive) in the assay on ACHN; > 100 µM (inactive) in the assay on DU-145; > 100 µM (inactive) in the assay with HL-60; > 100 µM (inactive) with Hs-578T; > 100 µM (inactive) in the assay on MCF7; > 100 µM (inactive) in the assay on MDA-MB-231. In addition, the GI50 is > 100 µM (inactive) in the assay with MDA-MB-435; > 100 µM (inactive) in the assay with NCI-H460; > 100 µM (inactive) in the assay with OVCAR-8; > 100 µM (inactive) in the assay with PC-3; 82.8 µM (inactive) in the assay on RXF 393; > 100 µM (inactive) in the assay with SK-MEL-28. In addition, the GI50 in the assay on SK-MEL-5 was > 100 µM (inactive); with SK-OV-3 it was > 100 µM (inactive); in the assay on SNB-75, 44.5 µM (inactive); in the assay with SW-620 it was > 100 µM (inactive); in the assay with U-251, 47.9 µM (inactive).

In the case of `CC1(F)C=CC(=O)C=C1`, the GI50 in the assay on A549 was > 100 µM (inactive); in the assay on ACHN it was 59.6 µM (inactive); in the assay with DU-145, > 100 µM (inactive); with HL-60, 27.6 µM (inactive); in the assay on Hs-578T, > 100 µM (inactive); in the assay with MCF7 it was 31.8 µM (inactive). Moreover, the GI50 was 40.1 µM (inactive) with MDA-MB-231; 35.7 µM (inactive) with MDA-MB-435; > 100 µM (inactive) with NCI-H460; 19.6 µM (inactive) in the assay with OVCAR-8; 69.7 µM (inactive) in the assay on PC-3; > 100 µM (inactive) in the assay with SK-MEL-28. Also, the GI50 in the assay on SK-MEL-5 is > 100 µM (inactive); with SK-OV-3, > 100 µM (inactive); in the assay on SNB-75, > 100 µM (inactive); with SW-620, 22.2 µM (inactive); with U-251 it was 24.7 µM (inactive); in the assay on UO-31 it was 23.6 µM (inactive).

As for `[O-][N+]1=C2CCC/C(=N/O)C2(O)C2CCCCC21N1CCOCC1` (configuration not stated), the GI50 with A549, in the assay on ACHN, in the assay with Hs-578T, in the assay on MCF7, with MDA-MB-231 and in the assay on MDA-MB-435 was > 100 µM (inactive) each time. The GI50 with NCI-H460 was > 100 µM (inactive); in the assay on OVCAR-8, > 100 µM (inactive); in the assay on PC-3, > 100 µM (inactive); in the assay with RXF 393, 8.02 µM (inactive); in the assay on SK-MEL-28, > 100 µM (inactive); in the assay on SK-MEL-5, > 100 µM (inactive). Besides, the GI50 in the assay on SK-OV-3, with SNB-75, in the assay with SW-620, in the assay on T47D, with U-251 and in the assay with UO-31 was > 100 µM (inactive) in each case.

On to `COc1ccc2nc(-c3ccc(N)cc3)sc2c1`, for which the GI50 in the assay on A549 was 68.1 µM (inactive); in the assay on ACHN, 51.6 µM (inactive); in the assay with HL-60, 47.5 µM (inactive); in the assay on Hs-578T, 34.6 µM (inactive); in the assay on MCF7 it was > 100 µM (inactive); in the assay with MDA-MB-231, 81.8 µM (inactive). Further, the GI50 with MDA-MB-435 was > 100 µM (inactive); in the assay with NCI-H460 it was 54 µM (inactive); in the assay on OVCAR-8, 52.5 µM (inactive); in the assay on PC-3, 48 µM (inactive); in the assay on RXF 393 it was > 100 µM (inactive); with SK-MEL-28, > 100 µM (inactive). Also, the GI50 with SK-MEL-5 is 61.4 µM (inactive); with SK-OV-3, > 100 µM (inactive); in the assay with SNB-75, 44.8 µM (inactive); in the assay with SW-620 it was > 100 µM (inactive); with U-251 it was 35.6 µM (inactive); with UO-31, 29.4 µM (inactive).

In the case of `CC(O)CCCOC(c1ccccc1)(c1ccccc1)c1ccccc1` (configuration not stated), the GI50 is 13.8 µM (inactive) in the assay with A549; 14.6 µM (inactive) in the assay on ACHN; 16.6 µM (inactive) in the assay on DU-145; 17.6 µM (inactive) in the assay with HL-60; 18.7 µM (inactive) in the assay with Hs-578T; 14.7 µM (inactive) in the assay on MCF7. Further, the GI50 is 17.3 µM (inactive) in the assay with MDA-MB-231; 16.5 µM (inactive) with MDA-MB-435; 16.1 µM (inactive) in the assay on NCI-H460; 14.7 µM (inactive) with OVCAR-8; 11.5 µM (inactive) with PC-3; 14.7 µM (inactive) with RXF 393. Besides, the GI50 in the assay on SK-MEL-28 is 16.4 µM (inactive); in the assay on SK-MEL-5 it was 11.8 µM (inactive); in the assay on SK-OV-3 it was 16.6 µM (inactive); with SNB-75 it was 12.6 µM (inactive); with SW-620, 16.6 µM (inactive); with U-251 it was 16.4 µM (inactive). For the same molecule, in the assay on UO-31, the GI50 was 13.7 µM (inactive).

As for `NC(=O)SCC(=O)Nc1ccc2ncccc2c1`, the GI50 in the assay with A549 is > 100 µM (inactive); with ACHN, > 100 µM (inactive); in the assay with HL-60 it was > 100 µM (inactive); in the assay on Hs-578T it was 67.3 µM (inactive); with MCF7, 46.8 µM (inactive); in the assay with MDA-MB-231, > 100 µM (inactive). The GI50 was 48.3 µM (inactive) with MDA-MB-435; 85.3 µM (inactive) in the assay with NCI-H460; > 100 µM (inactive) in the assay with OVCAR-8; 64.9 µM (inactive) with PC-3; > 100 µM (inactive) in the assay with SK-MEL-28; 43.4 µM (inactive) with SK-MEL-5. Besides, the GI50 in the assay on SK-OV-3 is > 100 µM (inactive); with SW-620, > 100 µM (inactive); in the assay on U-251, 21.5 µM (inactive); with UO-31 it was > 100 µM (inactive).

With `O=C(O)/C=C/c1ccc2c(c1)CC1(Cc3ccccc3C1)C2`, the GI50 with A549 was 34.8 µM (inactive); in the assay with ACHN it was 41.6 µM (inactive); in the assay with HL-60, 37.5 µM (inactive); in the assay with Hs-578T, > 100 µM (inactive); in the assay on MCF7 it was 43.6 µM (inactive); in the assay on MDA-MB-231, > 100 µM (inactive). In addition, the GI50 with MDA-MB-435 is 80.5 µM (inactive); in the assay on OVCAR-8 it was 66.1 µM (inactive); with PC-3 it was 53.6 µM (inactive); in the assay with RXF 393 it was 94 µM (inactive); in the assay on SK-MEL-5, 43.5 µM (inactive); in the assay with SK-OV-3, > 100 µM (inactive). The GI50 is > 100 µM (inactive) in the assay with T47D, 49.5 µM (inactive) with U-251 and 80 µM (inactive) with UO-31.

As for `Cc1ccc(N/C(=C(/C(Cl)=C(Cl)Cl)[N+](=O)[O-])n2nnc3ccccc32)cc1`, the GI50 in the assay with A549 is 19.5 µM (inactive); in the assay with ACHN it was 21.4 µM (inactive); in the assay on Hs-578T, 25.8 µM (inactive); in the assay on MCF7, 29.1 µM (inactive); in the assay with MDA-MB-435, 20.1 µM (inactive); in the assay on NCI-H460 it was 18 µM (inactive). Further, the GI50 was 18.8 µM (inactive) in the assay with OVCAR-8; 17.5 µM (inactive) in the assay with PC-3; 17.5 µM (inactive) in the assay with SK-MEL-28; 17.1 µM (inactive) in the assay with SK-OV-3; 18.8 µM (inactive) in the assay with SNB-75; 20.7 µM (inactive) with SW-620. Besides, the GI50 in the assay on T47D was 22.5 µM (inactive); in the assay with UO-31, 16.6 µM (inactive).

As to `C1COCCN1.CN(C)c1ccc(-c2c(C#N)c(N)nc(S)c2C#N)cc1`, the GI50 was > 100 µM (inactive) with A549; > 100 µM (inactive) in the assay with ACHN; > 100 µM (inactive) with DU-145; > 100 µM (inactive) with HL-60; 4.57 µM (inactive) in the assay with Hs-578T; 53.1 µM (inactive) in the assay with MCF7. For the same molecule, the GI50 was 34.4 µM (inactive) with MDA-MB-231; 83.4 µM (inactive) with MDA-MB-435; 40.2 µM (inactive) with NCI-H460; > 100 µM (inactive) in the assay on OVCAR-8; 30.5 µM (inactive) with PC-3; 23.5 µM (inactive) in the assay on RXF 393. For the same molecule, the GI50 is 82.6 µM (inactive) in the assay with SK-MEL-28; 44.7 µM (inactive) with SK-MEL-5; > 100 µM (inactive) in the assay on SK-OV-3; 34.3 µM (inactive) with SNB-75; 63 µM (inactive) in the assay on SW-620; > 100 µM (inactive) in the assay with U-251. For the same molecule, the GI50 with UO-31 was 64.1 µM (inactive).

`Cc1cnoc1NS(=O)(=O)c1ccc(Nc2nnc(/C=C/c3c(O)ccc4ccccc34)c(=O)n2N)cc1`: the GI50 is 35.1 µM (inactive) in the assay with A549; 22.2 µM (inactive) in the assay on ACHN; 43.8 µM (inactive) in the assay with DU-145; 0.74 µM (active) with HL-60; 29.2 µM (inactive) in the assay on Hs-578T; 18.2 µM (inactive) in the assay with MCF7. For the same molecule, the GI50 in the assay on MDA-MB-435 was 26.7 µM (inactive); with OVCAR-8 it was 16.4 µM (inactive); in the assay with RXF 393, 24 µM (inactive); with SK-OV-3 it was 56.1 µM (inactive); with SNB-75, 20.8 µM (inactive); in the assay with SW-620 it was 32.7 µM (inactive). The GI50 is 20.1 µM (inactive) in the assay on T47D and 28.7 µM (inactive) in the assay on UO-31.

The values above are taken from ChEMBL document CHEMBL1201862, “PubChem BioAssay data set” (2004).
